In patent US9439430B2, “Method of controlling resistant harmful plants” (priority 2012, dated 2016):

Assays:
[1] = test system: KCHSC; assay: Greenhouse test, post-emergence (PO) application, foliar effect; type: in vivo, Kochia scoparia; conditions: (A) 50, (B) 20, mixture 50 + 20 g of AS/ha, 3 weeks after application
Excerpt: (§1) The 1:1 mixture of the two soil types was used specifically for cultivating small-seeded dicotyledonous weed since the standard field soil on its own tends to silt up, which may have an adverse effect on the emergence of small-seeded weeds. The resistances mentioned in the tables were confirmed beforehand in standard monitoring experiments. Nevertheless, the origins examined may have additional, hitherto unconfirmed resistances to various mechanisms of action.
(§2) The pots were then cultivated in a greenhouse (12-16 h light, temperature day 20-22° C., night 15-18° C.) until the time of application. The pots were treated at various BBCH stages of the seeds/plants on a laboratory track sprayer with spray liquors comprising the compositions according to the invention, mixtures of the prior art or the individual components. Application of the active compounds or active compound combinations and wetting agents formulated as WG, WP, EC or otherwise was carried out at the appropriate growth stages of the plants. The amount of water used for spray application was 100-600 l/ha. After the treatment, the plants were returned to the greenhouses and fertilized and watered as required. The pots were cultivated in a greenhouse (12-16 h light, temperature day 20-22° C., night 15-18° C.).
(§3) 3 weeks after the application, the foliar effect was evaluated on a scale of 0-100%:
(§4) 0%=no noticeable effect compared to untreated plants
(§5) 100%=full effect compared to untreated plants
(§6) The following abbreviations were used: • BBCH the BBCH code provides information about the morphological development stage of a plant. Officially, the abbreviation denotes the Biologische Bundesanstalt, Bundessortenamt and CHemische Industrie [Federal Biological Institute for Agriculture and Forestry, Federal Office for Crop Plant Varieties, Chemical Industry]. The range of BBCH 00-10 denotes the germination stages of the seeds until surface penetration. The range of BBCH 11-25 denotes the leaf development stages until stocking (corresponds to the number of tillers or side-shoots). • PE pre-emergence soil application; BBCH of the seeds/plants 00-10 • PO post-emergence application on the green parts of the plants; BBCH of the plants 11-25 • IU soil loamy silt—standard field soil • l/ha liters per hectare • S sensitive—the weed populations are sensitive to the active compounds tested • TSR target-site resistance. The weed populations comprise biotypes having a site-of-action-specific resistance, i.e. the binding site at the site of action is modified as a result of natural mutations in the gene sequence so that the active compounds are no longer able to bind, or bind in an unsatisfactory manner, and are therefore no longer able to act. • NTR non-target-site herbicide resistance; this is differentiated, inter alia, into EMR (Enhanced Metabolic Resistance) (the weed populations comprise biotypes having metabolic resistance, i.e. the plants are capable of metabolizing the active compounds more quickly via enzyme complexes, i.e. the active compounds are degraded more quickly in the plant), into reduced penetration into the plant, reduced translocation in the plant, accelerated excretion. […]

[2] = test system: CHEAL; assay: as above; type: in vivo, Chenopodium album; conditions: (A) 50, (B) 20, mixture 50 + 20 g of AS/ha, 3 weeks after application
Excerpt: as §1, §2, §3, §4, §5, §6

[3] = test system: APESV; assay: as above; type: in vivo, Apera spica-venti; conditions: (A) 50, (B) 20, mixture 50 + 20 g of AS/ha, 3 weeks after application
Excerpt: as §1, §2, §3, §4, §5, §6

[4] = test system: ERIBO; assay: as above; type: in vivo, Erigeron bonariensis; conditions: (A) 50, (B) 20, mixture 50 + 20 g of AS/ha, 3 weeks after application
Excerpt: as §1, §2, §3, §4, §5, §6

[5] = test system: BRODI; assay: as above; type: in vivo, Bromus diformis; conditions: (A) 50, (B) 20, mixture 50 + 20 g of AS/ha, 3 weeks after application
Excerpt: as §1, §2, §3, §4, §5, §6

[6] = test system: ERICA; assay: as above; type: in vivo, Erigeron canadensis; conditions: (A) 50, (B) 20, mixture 50 + 20 g of AS/ha, 3 weeks after application
Excerpt: as §1, §2, §3, §4, §5, §6

[7] = test system: KCHSC; assay: Greenhouse test, pre-emergence (PE) soil application; type: in vivo, Kochia scoparia; set-up: key: % effect: 0 = no effect, 100 = full effect vs untreated; conditions: group (B) compound alone, 20 g of AS/ha
Excerpt: as §1, §2, §3, §4, §5, §6

[8] = test system: BIDSU; assay: Greenhouse test, post-emergence (PO) application, foliar effect; type: in vivo, Bidens subalternans; conditions: BIDSU sensitive, (A) 50, (B) 20, mixture 50 + 20 g of AS/ha, 3 weeks after application
Excerpt: as §1, §2, §3, §4, §5, §6

[9] = test system: BRODI; assay: Greenhouse test, pre-emergence (PE) soil application; type: in vivo, Bromus diformis; set-up: key: % effect: 0 = no effect, 100 = full effect vs untreated; conditions: group (B) compound alone, 20 g of AS/ha
Excerpt: as §1, §2, §3, §4, §5, §6

[10] = test system: AMATA; assay: as above; type: in vivo, Amaranthus rudis; set-up: key: % effect: 0 = no effect, 100 = full effect vs untreated; conditions: group (B) compound alone, 20 g of AS/ha
Excerpt: as §1, §2, §3, §4, §5, §6

[11] = test system: LOLSS; assay: as above; type: in vivo, Lolium spp.; set-up: key: % effect: 0 = no effect, 100 = full effect vs untreated plants; conditions: group (B) compound alone, 20 g of AS/ha
Excerpt: as §1, §2, §3, §4, §5, §6

[12] = test system: TTTTT (all resistant and sensitive biotypes); assay: Greenhouse test, PO application, mean over all resistant and sensitive biotypes; type: in vivo; conditions: (A) 50, (B) 20, mixture 50 + 20 g of AS/ha; for TTTTT resistant mean (effect): mean of resistant biotypes (n = 17 or n = 15); for TTTTT sensitive mean (effect): mean of sensitive biotypes (n = 11)
Excerpt: as §1, §2, §3, §4, §5, §6

[13] = test system: AMATA; assay: Greenhouse test, post-emergence (PO) application, foliar effect; type: in vivo, Amaranthus rudis; conditions: (A) 50, (B) 20, mixture 50 + 20 g of AS/ha, 3 weeks after application
Excerpt: as §1, §2, §3, §4, §5, §6

[14] = test system: LOLSS; assay: as above; type: in vivo, Lolium spp.; conditions: (A) 50, (B) 20, mixture 50 + 20 g of AS/ha, 3 weeks after application
Excerpt: as §1, §2, §3, §4, §5, §6

[15] = KCHSC resistant - group B (TSR)
[16] = CHEAL resistant - group B (TSR), C1 (NA) and G (NTR)
[17] = APESV resistant - group B (TSR, NTR) and K1/3 (NA)
[18] = ERIBO resistant - group B (NA) and G (NTR)
[19] = BRODI resistant - group A (TSR), B (NTR) and G (NTR)
[20] = ERICA resistant - group B (NA) and G (NTR)
[21] = AMATA resistant - group B (TSR), C1 (TSR)
[22] = LOLSS resistant - group G (NTR)
[23] = LOLSS resistant group A (TSR, NTR), B (NTR) and C2 (NA)
[24] = LOLSS resistant group A (TSR, NTR), B (TSR, NTR) and C2 (NA)

SMILES | foliar effect [1, 15] | foliar effect ([1]; KCHSC sensitive) | foliar effect [2, 16] | foliar effect ([2]; CHEAL sensitive) | foliar effect [3, 17] | foliar effect ([3]; APESV sensitive) | foliar effect [4, 18] | foliar effect ([4]; ERIBO sensitive) | foliar effect [5, 19] | foliar effect ([5]; BRODI sensitive) | foliar effect [6, 20] | foliar effect ([6]; ERICA sensitive) | effect on KCHSC resistant - group B (TSR) [7] | effect on KCHSC sensitive [7] | foliar effect [8] | effect on BRODI resistant - group A (TSR), B (NTR) and G (NTR) [9] | effect on BRODI sensitive [9] | effect on AMATA sensitive [10] | effect on LOLSS resistant - group G (NTR) [11] | effect on LOLSS resistant group A (TSR, NTR), B (NTR) and C2 (NA) [11] | further results
CCS(=O)(=O)c1cccnc1S(=O)(=O)NC(=O)Nc1nc(OC)cc(OC)n1 [(B3), rimsulfuron] | 0% | 90% | 70% | 80% | 20% | 100% | 60% | 90% | 75% | 100% | 60% | 90% | 20 | 80 | 70% | 70 | 80 | 70 | 60 | 50 | effect on LOLSS resistant group A (TSR, NTR), B (TSR, NTR) and C2 (NA) [11]: 50; effect on LOLSS sensitive [11]: 70; TTTTT resistant mean (effect) [12]: 46%; TTTTT sensitive mean (effect) [12]: 88%; foliar effect [13, 21]: 90%; foliar effect ([13]; AMATA sensitive): 70%; foliar effect [14, 22]: 60%; foliar effect [14, 23]: 60%; foliar effect [14, 24]: 15%; foliar effect ([14]; LOLSS sensitive): 95%
CCOC(=O)c1ccccc1S(=O)(=O)NC(=O)Nc1nc(Cl)cc(OC)n1 [(B4), chlorimuron-ethyl] | 0% | 90% | 50% | 60% | 0% | 100% | 60% | 80% | 70% | 100% | 60% | 80% | 0 | 50 | 60% | 80 | 95 | 60 | 60 | 55 | effect on AMATA resistant - group B (TSR), C1 (TSR) [10]: 50; effect on LOLSS resistant group A (TSR, NTR), B (TSR, NTR) and C2 (NA) [11]: 10; effect on LOLSS sensitive [11]: 70; TTTTT resistant mean (effect) [12]: 31%; TTTTT sensitive mean (effect) [12]: 72%; foliar effect [13, 21]: 60%; foliar effect ([13]; AMATA sensitive): 30%; foliar effect [14, 22]: 50%; foliar effect [14, 23]: 55%; foliar effect [14, 24]: 0%; foliar effect ([14]; LOLSS sensitive): 35%
COC(=O)c1csc(C)c1S(=O)(=O)NC(=O)n1nc(OC)n(C)c1=O [(B5), thiencarbazone-methyl] | 0% | 90% | 70% | 70% | 0% | 100% | 60% | 70% | 50% | 95% | 60% | 70% | 0 | 85 | 60% | 70 | 70 | 60 | 70 | 80 | effect on AMATA resistant - group B (TSR), C1 (TSR) [10]: 40; effect on LOLSS resistant group A (TSR, NTR), B (TSR, NTR) and C2 (NA) [11]: 20; effect on LOLSS sensitive [11]: 75; TTTTT resistant mean (effect) [12]: 25%; TTTTT sensitive mean (effect) [12]: 76%; foliar effect [13, 21]: 40%; foliar effect ([13]; AMATA sensitive): 30%; foliar effect [14, 22]: 40%; foliar effect [14, 23]: 50%; foliar effect [14, 24]: 0%; foliar effect ([14]; LOLSS sensitive): 85%
